{"source": "patent US20030118577A1", "about": "“Use of analogues of superoxide dismutase for treating hepatocellular insufficiencies” (priority 2000, published 2003)", "key": {"[1]": {"tested_on": "acute hepatic insufficiency induced by acetaminophen", "experiment": "Survival of mice after intraperitoneal acetaminophen (acute hepatic insufficiency)", "settings": "for percentage of surviving animals: Group XV: APAP 1000 mg/kg, CuDIPS 10 mg/kg (P)", "experimental": "The intraperitoneal injection of acetaminophen into mice induces a severe hepatotoxicity, the degree of which may be evaluated by the survival of the animals, measuring transaminase activities, and macroscopic and microscopic examination of the livers.\nThe acetaminophen in solution at 100 mg/ml in PBS at pH 7.4 is administered by the intraperitoneal route.\nIn a first series of experiments, a group of mice received a dose of 1000 mg/kg of acetaminophen; a second group received a dose of 1000 mg/kg of acetaminophen and a dose of 10 mg/kg of MnTBAP administered either 2 h before the acetaminophen or 6 h after; a control group received either MnTBAP alone (10 mg/kg), or PBS alone.\nThe survival of the animals is monitored for 24 hours after the administration of acetaminophen.\nThe effect of N-acetyl-L-cysteine (NAC), of CuDIPS, and of MnTBAP on the survival of mice after intraperitoneal injection of 1000 mg/kg of acetaminophen (APAP) was compared.\nMnTBAP, NAC, or CuDIPS are administered in the form of a bolus, preventively, 2 hours before (P) or, curatively, 6 hours after (C) the acetaminophen.\nThe survival of the animals is monitored for 24 hours after administration of acetaminophen."}, "[2]": {"tested_on": "hepatic impairments resulting from the administration of galactosamine-LPS", "settings": "prior administration; MIESEL et al. 1995; cited from earlier work"}, "[3]": {"tested_on": "hepatic impairments induced by the administration of acetaminophen or of galactosamine", "settings": "simultaneous administration; EP 0333490; cited from earlier work"}}}
{"compound": "CC(C)c1cc(C(=O)[O-])c(O)c(C(C)C)c1.CC(C)c1cc(C(=O)[O-])c(O)c(C(C)C)c1.[Cu+2]", "note": "[CuDIPS, Cu(II)-(diisopropylsalicylate)2]", "values": [{"measurement": "effect on survival rate, administered preventively", "setting": "[1]; APAP 1000 mg/kg, 2 hours before (P)", "value": "does not significantly increase the survival rate"}, {"measurement": "percentage of surviving animals", "setting": "[1]; time 0 h", "value": 100, "unit": "%"}, {"measurement": "percentage of surviving animals", "setting": "[1]; time 6 h", "value": 100, "unit": "%"}, {"measurement": "percentage of surviving animals", "setting": "[1]; time 8 h", "value": 91.6, "unit": "%"}, {"measurement": "percentage of surviving animals", "setting": "[1]; time 9 h", "value": 83.3, "unit": "%"}, {"measurement": "percentage of surviving animals", "setting": "[1]; time 10 h", "value": 75, "unit": "%"}, {"measurement": "percentage of surviving animals", "setting": "[1]; time 11 h", "value": 58.3, "unit": "%"}, {"measurement": "percentage of surviving animals", "setting": "[1]; time 12 h", "value": 58.3, "unit": "%"}, {"measurement": "percentage of surviving animals", "setting": "[1]; time 13 h", "value": 41.6, "unit": "%"}, {"measurement": "percentage of surviving animals", "setting": "[1]; time 14 h", "value": 41.6, "unit": "%"}, {"measurement": "percentage of surviving animals", "setting": "[1]; time 15 h", "value": 41.6, "unit": "%"}, {"measurement": "percentage of surviving animals", "setting": "[1]; time 16 h", "value": 33.3, "unit": "%"}, {"measurement": "percentage of surviving animals", "setting": "[1]; time 17 h", "value": 33.3, "unit": "%"}, {"measurement": "percentage of surviving animals", "setting": "[1]; time 18 h", "value": 25, "unit": "%"}, {"measurement": "percentage of surviving animals", "setting": "[1]; time 20 h", "value": 25, "unit": "%"}, {"measurement": "percentage of surviving animals", "setting": "[1]; time 22 h", "value": 25, "unit": "%"}, {"measurement": "percentage of surviving animals", "setting": "[1]; time 24 h", "value": 25, "unit": "%"}]}
{"compound": "C(=NCCCCN=Cc1ccccn1)c1ccccn1.[Cu+2].[O-][Cl+3]([O-])([O-])[O-]", "note": "[CuPu(Py)2]", "values": [{"measurement": "hepatic impairments", "setting": "[2]", "value": "reduced"}]}
{"compound": "CuZnSOD: copper-zinc superoxide dismutases, also known by the name superoxide dismutase-1", "values": [{"measurement": "hepatic impairments", "setting": "[3]", "value": "reduced"}]}
